# Assay results as given in a melting point compilation (Tetko et al.; mined from patent text by program, amines drawn as free bases though some values may be those of a salt).
row,Structure (SMILES),melting point
1,Cc1cc(C)c2nc(CCCCl)n(-c3ccc(C(C(=O)O)C4CCCC4)cc3)c2n1 (stereo not given),214 °C
2,COc1ccc(NC(=O)CCCCC(=O)N(C)OC)cc1,89 to 90 °C
3,COc1cc2c(c(Cl)c1Cl)C(=O)C(C)(CC1CCCC1)C2 (stereo not given),75 to 77 °C
4,COc1cncnc1N1CCN(CCCc2csc3ccc(C(N)=O)cc23)CC1,169 to 170 °C
5,CNC(=O)COC1C(O)C(CO)OC(Oc2ccc(N)cc2)C1O (stereo not given),239 °C
6,O=c1[nH]c(-c2ccc(C(F)(F)F)cc2C(F)(F)F)nn1-c1cc(Cl)ccc1O,270 to 275 °C
7,CC(C(N)=O)c1ccc(-c2ccc(F)cc2F)c(F)c1 (stereo not given),136 to 137 °C
8,CC(C)COc1cc(C(=O)O)cc(N)c1C(=O)c1ccccc1,192 to 196 °C
9,O=C(NC/C=C\COc1cc(CN2CCCC2)ccn1)c1ccc[nH]1,124 to 127 °C
10,CC(C)(C)OC(=O)NC1COCCCC=CC2CC2(C(=O)NS(=O)(=O)C2CC2)NC(=O)C2CC(OC(=O)N3CCc4ccccc43)CN2C1=O (stereo not given),128 to 130 °C
11,COC(=O)[C@H](CO)NC(=O)[C@H](Cc1ccccc1)NC(=O)OC(C)(C)C,90 to 93 °C
12,CCOCCn1c(C)c(C2(c3ccc(N(CC)CC)cc3CC)OC(=O)c3ccccc32)c2ccccc21 (stereo not given),156 to 158 °C
13,CN(C)CCOc1ccc2oc(-c3cc4ccccc4cn3)cc(=NO)c2c1,203 to 205 °C
14,Cc1nn(Cc2ccccc2)cc1C(=O)Nc1ccc(N2CCC(N3CCOCC3)CC2)c(C#N)c1,193 °C
15,O=C1CCC(N2Cc3c(OCc4ccc(CN(CCC(F)(F)F)CCC(F)(F)F)cc4)cccc3C2=O)C(=O)N1 (stereo not given),107 to 109 °C
16,CCOC(=O)C1=Nc2cc3c(c(C)c2=C1C)N=c1ccc(C#N)cc1=3,> 240 °C
17,Cc1cccc(-c2cc(C(=O)O)n(C)n2)c1,150 to 153 °C
18,Cc1cc(S(=O)(=O)NC2CCCCC2)c2c(C)ccc(C(C)C)cc1-2,108 to 109 °C
19,CC(=O)OC1CSC(Oc2cc(-c3ccc(C#N)cc3)cnc2F)C(OC(C)=O)C1OC(C)=O (stereo not given),132 to 133 °C
20,COc1ccc(C(=O)Nc2ccc(F)c(F)c2)cc1NCc1cccc(O)c1,160 to 163 °C
21,CC1(C)OC(c2ccc(S(N)(=O)=O)c(F)c2)=C(c2cc(F)cc(F)c2)C1=S,153 to 154 °C
22,Cc1ccc(C#N)c(OC(C)(C)C=O)c1,57 to 59 °C
23,CCOc1cc2c(O)c(C)cnc2nc1C,238 to 242 °C
24,COc1cccc(CCNC(=O)c2ccc3c(c2)C=CC(C)(C)O3)c1,105 to 110 °C

row,Structure (SMILES),melting point
1,CN1C(=O)CN(C(=O)CNC(=O)OCc2ccccc2)C(c2ccccc2)c2cc(Cl)ccc21 (stereo not given),158 to 160 °C
2,CCNc1nc(N=[N+]=[N-])nc(NC(C)C(F)(F)F)n1 (stereo not given),69 to 75 °C
3,COCCOCCOc1ccc2c(c1)S(=O)(=O)N(CCl)C2=O,113 to 115 °C
4,Oc1cc(-c2c3ccccc3c(Br)c3sc4ccccc4c23)ccc1Br,111 to 112 °C
5,O=C(O)CC(Sc1ccc(Cl)cc1)c1ccccc1 (stereo not given),90 to 92 °C
6,CC(C)COc1ccc(-c2nc3cccc(C(=O)O)c3s2)cc1C#N,268 to 270 °C
7,NC(=O)Cc1ccc(-c2cnc3[nH]c(=O)n(CC4CCCCC4)c3n2)cc1,272 to 274 °C
8,O=C1C(CCO)Oc2ccc(F)cc2N1Cc1cccc([N+](=O)[O-])c1 (stereo not given),110 to 112 °C
9,Cc1ccc(-c2ccc3c(c2)C=C(C(=O)Nc2ccc(CNCC4CCCCC4)cc2)CCO3)cc1,154 to 155 °C
10,Cn1ncc2c1-c1cc(Cl)ccc1OC2,80.5 to 81 °C
11,O=C1c2ccccc2C(=O)N1CC#CC1=CCN=C(c2ccccc2F)c2cc(Cl)ccc21,164 to 165 °C
12,CS(=O)(=O)Nc1cc(N2C(=O)C3=C(CCCC3)C2=O)c(F)cc1C#N,113 °C
13,CCCOc1cc(CO)n(Cc2ccc3ccccc3n2)n1,90 to 91 °C
14,CC(=O)N1CCC(CCCCC(=O)O)CC1,198 to 203 °C
15,CC(C)Oc1cccc(NC(=O)OCc2c(-c3ccccc3)c3cc(Cl)ccc3c(=O)n2C)c1,205 to 207 °C
16,Cc1ccnc(N)c1C,79.5 to 81 °C
17,O=C(CCl)NCCCn1cc(-c2ccccc2)c2ccccc2c1=O,140 °C
18,CN(C)CCOc1ccc(O)c(C=NCCN=Cc2cc(OCCN(C)C)ccc2O)c1,84 to 86 °C
19,CC(=NNC(=O)c1cc([N+](=O)[O-])cc2ccccc12)c1ccncc1,228 °C
20,CCOc1cc2oc(=O)c3c(c2cc1OCC)CCN(CC(C)=O)C3,146 to 148 °C
21,CCCCc1nc2c(N)nc3cccnc3c2n1CCCC(C)=NOC,132 to 134 °C
22,CC(C)NC(=O)Nc1cc(-c2ccnc3c(C(=O)c4cccs4)cnn23)ccc1F,> 200 °C
23,Nc1ccc(Oc2cc(Cl)ncn2)cc1,136 to 138 °C
24,COC(=O)C1=CC=CC(C(=O)OC)(N(c2ccccc2)c2ccc(-c3ccc(N(c4ccccc4)C4(C(=O)OC)C=CC=C(C(=O)OC)C4)cc3)cc2)C1 (stereo not given),136 to 141 °C

row,Structure (SMILES),melting point
1,Cn1c(OCC(F)(F)C(F)F)n[nH]c1=O,101 °C
2,COC(=O)CNC(=O)c1ccc(C(=O)NS(=O)(=O)c2ccccc2)cn1,125 to 126 °C
3,CN(C(=O)c1cccc(C(=O)O)c1)c1ccc2c(=O)n3c(nc2c1)C(=Cc1ccccc1)CC3,302 to 304 °C
4,COC(=O)CCc1ccc(CCNC(=O)c2cc(Cl)ccc2OC)cc1,58 to 61 °C
5,CCCCCCCCCCOc1cc(OCCCCCCc2cccc(O)c2O)cc(C(=O)OC)c1,71 to 72 °C
6,[N-]=[N+]=C1CCc2ccccc2C1=O,50 to 52 °C
7,COc1cc2[nH]c3c(OC)c(OC)ccc3c2cc1OC,170 to 171 °C
8,N#Cc1ccc(N(Cc2ccc(Br)cc2)n2cnnc2)cc1-c1ccc(OS(N)(=O)=O)cc1,122 to 123 °C
9,CC(C)(C)OC(=O)N1CCC2(C=Cc3ccccc32)CC1,128 °C
10,Cc1ccc(Oc2ccc(-c3noc(=O)[nH]3)cc2)c(O)c1,195 to 198 °C
11,CC(C)CC(=O)Nc1cccc(-c2ccnc3c(-c4cccc(N(C)C)c4)cnn23)c1,182 to 184 °C
12,CCCCCCCCCCCCCCCCSCC(CO)NC(=O)OC(C)(C)C (stereo not given),48 to 50 °C
13,CS(=O)CCCn1cnc(-c2ccc(F)cc2)c1-c1ccncc1 (racemic),122 to 123 °C
14,O=C(O)CN=C(O)c1ccc(C(O)=NCC(=O)O)c2c(C(=O)O)ccc(C(=O)O)c12,> 300 °C
15,CC(NC(=S)Nc1ccc(Nc2ccccc2)nc1)C(C)(C)C (stereo not given),168 to 170 °C
16,COc1ccc(C#Cc2cccc(CN(O)C(C)=O)c2)cc1,124 to 126 °C
17,CCCCc1nc2ccc(C(=O)OC)cc2n1Cc1ccc(-c2ccccc2-c2nnn[nH]2)cc1,224 to 225 °C
18,CN1CCCc2ccc(C(=O)CCC(=O)N3CCC(c4ccc(Cl)cc4)CC3)cc2C1,133 to 134 °C
19,Nc1c(Br)cc(F)cc1[N+](=O)[O-],71.5 to 72.5 °C
20,Nc1ccc([C@H]2CC[C@H](NCCCc3ccccc3)CC2)cc1,60 to 63 °C
21,COc1ccc2ccc(OS(=O)(=O)C(F)(F)F)cc2c1,34 °C
22,CCCCCC[C@@H](F)COc1cnc(-c2ccc(CCCCC)c(F)c2F)nc1,74.7 °C
